From patent publication US12606852B2, “Conversion of lignin-derived monomers to muconate by engineered pseudomonas” (Alliance for Sustainable Energy, LLC, priority 2021, dated 2026)
Values joined by “and” are separate entries in the source; they are usually repeats but may differ in a detail not shown here. Identical values can stand only once. Like-named read-outs stand apart in the source and are kept apart here.

Tests used:
[1] = molecular target: Pseudomonas putida KT2440 PobA (para-hydroxybenzoate-3-hydroxylase, PHBH), native, PP_3537, tagless, pobA_EC gene SEQ ID NO: 1 (Pseudomonas putida, UniProt Q88H28); experiment: Steady-state kinetic analysis of PobA (hydroxylation of 4-hydroxybenzoate); format: biochemical; conditions: for kcat (NAD(P)H): NADPH varied, air-saturated, 200 μM 4-hydroxybenzoate, pH 8, 25° C.
Pseudomonas putida KT2440 PobA (para-hydroxybenzoate-3-hydroxylase, PHBH), native, PP_3537, tagless, pobA_EC gene SEQ ID NO: 1, sequence (Q88H28 1-395): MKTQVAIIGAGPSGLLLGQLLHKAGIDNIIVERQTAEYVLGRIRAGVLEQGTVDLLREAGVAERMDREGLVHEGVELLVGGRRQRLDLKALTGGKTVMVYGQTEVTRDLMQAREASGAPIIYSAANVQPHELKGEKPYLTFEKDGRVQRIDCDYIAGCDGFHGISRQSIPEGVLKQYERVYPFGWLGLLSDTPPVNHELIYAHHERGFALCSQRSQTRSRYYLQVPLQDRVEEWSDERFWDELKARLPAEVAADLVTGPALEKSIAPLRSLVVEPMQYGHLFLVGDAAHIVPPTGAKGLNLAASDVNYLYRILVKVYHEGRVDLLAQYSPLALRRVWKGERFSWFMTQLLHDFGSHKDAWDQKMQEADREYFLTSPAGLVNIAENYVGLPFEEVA

[2] = molecular target: T1, Paenibacillus sp. JJ-1b PraI (para-hydroxybenzoate-3-hydroxylase, PHBH), BAH79107, tagless, praI_EC gene SEQ ID NO: 3 (Paenibacillus sp., UniProt C4TP09); experiment: Steady-state kinetic analysis of PraI (hydroxylation of 4-hydroxybenzoate); format: biochemical; conditions: for kcat (NAD(P)H): air-saturated, 200 μM 4-hydroxybenzoate, pH 8, 25° C.
T1 construct: His-tagged form only for crystallography
T1 sequence (C4TP09 2-394): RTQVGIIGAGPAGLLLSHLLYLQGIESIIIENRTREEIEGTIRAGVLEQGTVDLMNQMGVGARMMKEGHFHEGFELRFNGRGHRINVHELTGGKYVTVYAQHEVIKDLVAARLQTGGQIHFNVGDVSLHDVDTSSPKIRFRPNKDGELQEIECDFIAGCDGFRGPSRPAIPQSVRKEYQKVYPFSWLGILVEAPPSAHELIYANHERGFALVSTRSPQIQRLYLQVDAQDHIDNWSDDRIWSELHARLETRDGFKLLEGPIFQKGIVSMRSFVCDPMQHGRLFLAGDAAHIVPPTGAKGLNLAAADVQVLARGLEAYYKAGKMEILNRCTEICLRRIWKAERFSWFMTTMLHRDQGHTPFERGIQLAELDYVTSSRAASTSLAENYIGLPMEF

[3] = system: Pseudomonas aeruginosa PHBH (para-hydroxybenzoate-3-hydroxylase); conditions: reported value, natively produced PHBH, cited from earlier work
[4] = system: Pseudomonas fluorescens PHBH (para-hydroxybenzoate-3-hydroxylase); conditions: read-out: KM^NADPH; reported value, natively produced PHBH; cited from earlier work

NC(=O)C1=CN([C@@H]2O[C@H](COP(=O)(O)OP(=O)(O)OC[C@H]3O[C@@H](n4cnc5c(N)ncnc54)[C@H](OP(=O)(O)O)[C@@H]3O)[C@@H](O)[C@H]2O)C=CC1 [NADPH]
kcat (NAD(P)H) ([1]; NADPH detection (340 nm)): 50 ± 5 s⁻¹
kcat (NAD(P)H) ([1]; O2 detection (oxygraph)): 47 ± 4 s⁻¹
kcat (NAD(P)H) ([2]; NADPH varied, NADPH detection (340 nm)): 27 ± 2 s⁻¹
kcat (NAD(P)H) ([2]; NADPH varied, O2 detection (oxygraph)): 23 ± 2 s⁻¹
difference in substrate specificity towards NADPH, PobA and PraI ([2]; average, PraI compared with PobA, different combination of the reactants): ≤ two-fold
Km ([3]; read-out: KM^NADPH): 23 µM
Km [4]: 50 µM

NC(=O)C1=CN([C@@H]2O[C@H](COP(=O)(O)OP(=O)(O)OC[C@H]3O[C@@H](n4cnc5c(N)ncnc54)[C@H](O)[C@@H]3O)[C@@H](O)[C@H]2O)C=CC1 [NADH]
utilization as reducing equivalent ([1]; O2 consumption in mixture containing PobA and 4HB): unreactive
kcat (NAD(P)H) ([2]; NADH varied, NADH detection (340 nm)): 25 ± 2 s⁻¹
kcat (NAD(P)H) ([2]; NADH varied, O2 detection (oxygraph)): 22 ± 2 s⁻¹
substrate specificity for NADH (slightly lowered) ([2]; NADH, relative to NADPH): about 60%

O=O [O2, molecular oxygen]
kcat (O2) ([1]; pH 8): 53 ± 5 s⁻¹
Km ([1]; pH 8, read-out: KM (O2)): 70 ± 5 µM
kcat (O2) ([2]; pH 8): 25 ± 2 s⁻¹ and 22 ± 2 s⁻¹
Km ([2]; pH 8, read-out: KM (O2)): 68 µM and 54 µM
Km ([3]; read-out: KM^oxygen): 37 µM

O=C(O)c1ccc(O)cc1 [4-hydroxybenzoate]
Km ([2]; read-out: KM (4-hydroxybenzoate), pH 8): 16 ± 1 µM
